Laboratory results: patent US20110053947A1, “Arylchalcogenoarylalkyl-substituted imidazolidine-2,4-diones, process for preparation thereof, medicaments comprising these compounds and use thereof” (SANOFI-AVENTIS, priority 2008, published 2011)
pIC50: −log10 of the molar value. Counter-ions that a name gives are not always drawn. Each block holds one compound with its values, some of them ahead of it.

Biological target: T1, cannabinoid 1 receptor (hCB1R) (Homo sapiens, UniProt P21554)
T1 construct: expressed in transfected cells; host or cells: HEK293
T1 sequence (P21554 whole entry): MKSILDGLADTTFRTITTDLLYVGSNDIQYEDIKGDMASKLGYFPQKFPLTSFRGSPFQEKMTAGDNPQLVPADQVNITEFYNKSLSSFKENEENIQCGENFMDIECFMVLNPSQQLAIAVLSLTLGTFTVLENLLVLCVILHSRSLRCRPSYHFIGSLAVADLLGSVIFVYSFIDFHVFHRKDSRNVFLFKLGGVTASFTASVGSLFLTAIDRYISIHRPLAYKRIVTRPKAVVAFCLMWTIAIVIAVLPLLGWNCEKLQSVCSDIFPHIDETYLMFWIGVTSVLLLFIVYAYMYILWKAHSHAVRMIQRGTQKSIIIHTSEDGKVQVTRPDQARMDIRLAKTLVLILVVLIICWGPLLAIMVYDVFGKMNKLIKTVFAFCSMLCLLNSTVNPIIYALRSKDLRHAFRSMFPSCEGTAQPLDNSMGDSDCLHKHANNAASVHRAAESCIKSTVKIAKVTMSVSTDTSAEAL
Test: In vitro functional assay with recombinant cells (FLIPR), CB1
Format: cell-based
Details: recombinant HEK293 cells expressing CB1 and G-protein; intracellular Ca2+ change after reference agonist, 20 min preincubation; read-out: hCB1R: FLIPR; IC50
Description: In vitro functional assays with recombinant cells:
Function-testing assays were performed by means of the FLIPR technique (“Fluorometric Imaging Plate Reader”, Molecular Devices Corp.).
To this end, ligand-induced changes in the intracellular concentration of Ca^2+ in recombinant HEK293 cells, which expressed both a cannabinoid receptor (CB1 or CB2) and G-protein Galphal6, were determined. For the studies, cells were sown into 96-well microtiter plates (60 000 cells/well) and left to grow overnight. The medium was removed and the cells were incubated in buffer which contained the fluorescent dye Fluo-4. After this loading with dye, the cells were washed, test substance was added dissolved in buffer, the mixture was incubated for 20 minutes, a known cannabinoid receptor agonist as a reference agonist was added in buffer and, finally, the changes in the intracellular Ca^2+ concentration were measured in the FLIPR unit.
Results were presented as the percentage change relative to the control (0%: analogous experiment without test substance and without reference agonist, i.e. only with buffer; 100%: analogous experiment without test substance, but with reference agonist in excess), and used to calculate dose/action curves, and IC50 values were determined.
The values of the functional assay compared to the cannabinoid 1 receptor including illustrative selectivities compared to the cannabinoid 2 receptor can be taken from table 1 which follows.

Compound: COc1ccc(CN2C(=O)N(c3ccc(F)c(C(F)(F)F)c3)C(=O)C2(C)C)c(NC(=O)Nc2ccc(S(N)(=O)=O)cc2)c1 [Example 70, 4-(3-{2-[3-(4-fluoro-3-trifluoromethylphenyl)-5,5-dimethyl-2,4-dioxoimidazolidin-1-ylmethyl]-5-methoxyphenyl}ureido)benzenesulfonamide]
pIC50: 7.85

Compound: CC1(C)C(=O)N(c2ccc(F)c(C(F)(F)F)c2)C(=O)N1Cc1ccc(F)cc1NC(=O)Nc1ccc(C(=O)NS(=O)(=O)C(F)(F)F)cc1 [Example 62, C,C,C-trifluoro-N-[4-(3-{5-fluoro-2-[3-(4-fluoro-3-trifluoromethylphenyl)-5,5-dimethyl-2,4-dioxoimidazolidin-1-ylmethyl]phenyl}ureido)benzoyl]methanesulfonamide]
pIC50: 7.34

Compound: CC1(C)C(=O)N(c2ccc(C#N)c(C3CC3)c2)C(=O)N1Cc1cc(Cl)ccc1NC(=O)Nc1ccc(S(C)(=O)=O)cc1 [Example 67, 1-{4-chloro-2-[3-(4-cyano-3-cyclopropylphenyl)-5,5-dimethyl-2,4-dioxoimidazolidin-1-ylmethyl]phenyl}-3-(4-methanesulfonylphenyl)urea]
pIC50: 8.22

Compound: CSc1ccc(NC(=O)Nc2cc(F)ccc2CN2C(=O)N(c3ccc(C#N)c(C4CC4)c3)C(=O)C2(C)C)cc1 [Example 30.1, 1-{2-[3-(4-cyano-3-cyclopropylphenyl)-5,5-dimethyl-2,4-dioxoimidazolidin-1-ylmethyl]-5-fluorophenyl}-3-(4-methylsulfanylphenyl)urea]
pIC50: 7.92

Compound: CC1(C)C(=O)N(c2ccc(C#N)c(C(F)(F)F)c2)C(=O)N1Cc1ccc(F)cc1NC(=O)Nc1ccc(S(C)(=O)=O)cc1 [Example 19, 1-{2-[3-(4-Cyano-3-trifluoromethylphenyl)-5,5-dimethyl-2,4-dioxoimidazolidin-1-ylmethyl]-5-fluorophenyl}-3-(4-methane-sulfonylphenyl)urea]
pIC50: 8.05

Compound: CC1(C)C(=O)N(c2ccc(F)c(C(F)(F)F)c2)C(=O)N1Cc1ccc(F)cc1NC(=O)Nc1ccc(C(=O)NS(=O)(=O)Cc2ccccc2)cc1 [Example 64, N-[4-(3-{5-fluoro-2-[3-(4-fluoro-3-trifluoromethylphenyl)-5,5-dimethyl-2,4-dioxoimidazolidin-1-ylmethyl]phenyl}ureido)benzoyl]-C-phenylmethanesulfonamide]
pIC50: 7.41

Compound: CC1(C)C(=O)N(c2ccc(C#N)c(C(F)(F)F)c2)C(=O)N1Cc1ccc(F)cc1NC(=O)Nc1ccc(O)cc1 [Example 41, 1-{2-[3-(4-Cyano-3-trifluoromethylphenyl)-5,5-dimethyl-2,4-dioxo-imidazolidin-1-ylmethyl]-5-fluorophenyl}-3-(4-hydroxyphenyl)urea]
pIC50: 8.40

Compound: CC1(C)C(=O)N(c2ccc(C#N)c(C3CC3)c2)C(=O)N1Cc1ccc(F)cc1NC(=O)Nc1ccc(S(C)(=O)=O)cc1 [Example 30, 1-{2-[3-(4-Cyano-3-cyclopropylphenyl)-5,5-dimethyl-2,4-dioxoimidazolidin-1-ylmethyl]-5-fluorophenyl}-3-(4-methanesulfonylphenyl)urea]
pIC50: 7.96

Compound: CC1(C)C(=O)N(c2ccc(C#N)c(C3CC3)c2)C(=O)N1Cc1ccc(F)cc1NC(=O)Nc1ccc(S(=O)(=O)O)cc1 [Example 29, 4-(3-{2-[3-(4-cyano-3-cyclopropylphenyl)-5,5-dimethyl-2,4-dioxo-imidazolidin-1-ylmethyl]-5-fluorophenyl}ureido)benzenesulfonic acid]
pIC50: 7.16

Compound: CC1(C)C(=O)N(c2ccc(C#N)c(C3CC3)c2)C(=O)N1Cc1ccc(F)cc1NC(=O)Nc1ccc(S(N)(=O)=O)cc1 [Example 28, 4-(3-{2-[3-(4-Cyano-3-cyclopropylphenyl)-5,5-dimethyl-2,4-dioxoimidazolidin-1-ylmethyl]-5-fluorophenyl}ureido)benzenesulfonamide]
pIC50: 8.05

Compound: COc1cc(CN2C(=O)N(c3ccc(F)c(C(F)(F)F)c3)C(=O)C2(C)C)c(NC(=O)Nc2ccc(S(N)(=O)=O)cc2)cc1OC [Example 68, 4-(3-{2-[3-(4-fluoro-3-trifluoromethylphenyl)-5,5-dimethyl-2,4-dioxoimidazolidin-1-ylmethyl]-4,5-dimethoxyphenyl}ureido)benzenesulfonamide]
pIC50: 7.41

Compound: CC1(C)C(=O)N(c2ccc(C#N)c(C3CC3)c2)C(=O)N1Cc1cc(C(F)(F)F)ccc1NC(=O)Nc1ccc(S(C)(=O)=O)cc1 [Example 66, 1-{2-[3-(4-Cyano-3-cyclopropylphenyl)-5,5-dimethyl-2,4-dioxoimidazolidin-1-ylmethyl]-4-trifluoromethylphenyl}-3-(4-methanesulfonylphenyl)urea]
pIC50: 8.00

Compound: COC(=O)c1ccc(NC(=O)Nc2cc(F)ccc2CN2C(=O)N(c3ccc(C#N)c(C(F)(F)F)c3)C(=O)C2(C)C)cc1 [Example 17, Methyl 4-(3-{2-[3-(4-cyano-3-trifluoromethylphenyl)-5,5-dimethyl-2,4-dioxoimidazolidin-1-ylmethyl]-5-fluorophenyl}ureido)benzoate]
pIC50: 8.00

Compound: CC1(C)C(=O)N(c2ccc(C#N)c(C(F)(F)F)c2)C(=O)N1Cc1ccc(F)cc1NC(=O)Nc1ccc(Cl)nc1 [Example 20, 1-(6-chloropyridin-3-yl)-3-{2-[3-(4-cyano-3-trifluoromethylphenyl)-5,5-dimethyl-2,4-dioxoimidazolidin-1-ylmethyl]-5-fluorophenyl}urea]
pIC50: 7.80

Compound: CC1(C)C(=O)N(c2ccc(C#N)c(C3CC3)c2)C(=O)N1Cc1ccc(F)cc1NC(=O)Nc1ccc(S(=O)(=O)CC(=O)O)cc1 [Example 47, [4-(3-{2-[3-(4-Cyano-3-cyclopropylphenyl)-5,5-dimethyl-2,4-dioxoimidazolidin-1-ylmethyl]-5-fluorophenyl}ureido)benzenesulfonyl]acetic acid]
pIC50: 7.60

Compound: CC1(C)C(=O)N(c2ccc(C#N)c(C(F)(F)F)c2)C(=O)N1Cc1ccc(F)cc1NC(=O)Nc1ccc(S(N)(=O)=O)cc1 [Example 22, 4-(3-{2-[3-(4-Cyano-3-trifluoromethylphenyl)-5,5-dimethyl-2,4-dioxoimidazolidin-1-ylmethyl]-5-fluorophenyl}ureido)benzenesulfonamide]
pIC50: 8.05

Results, then the compound that gave them:

pIC50: 7.96
Compound: CC1(C)C(=O)N(c2ccc(F)c(C(F)(F)F)c2)C(=O)N1Cc1ccc(Cl)cc1NC(=O)Nc1ccc(S(N)(=O)=O)cc1 [Example 69, 4-(3-{5-chloro-2-[3-(4-fluoro-3-trifluoromethylphenyl)-5,5-dimethyl-2,4-dioxoimidazolidin-1-ylmethyl]phenyl}ureido)benzenesulfonamide]

pIC50: 7.18
Compound: CC1(C)C(=O)N(c2ccc(F)c(C(F)(F)F)c2)C(=O)N1Cc1ccc(F)cc1NC(=O)Nc1ccc(S(=O)(=O)O)cc1 [Example 26, Sodium salt of 4-(3-{5-fluoro-2-[3-(4-fluoro-3-trifluoromethylphenyl)-5,5-dimethyl-2,4-dioxoimidazolidin-1-ylmethyl]phenyl}ureido)benzenesulfonic acid]

pIC50: 7.28
Compound: CC1(C)C(=O)N(c2ccc(F)c(C(F)(F)F)c2)C(=O)N1Cc1ccc(F)cc1NC(=O)Nc1ccc(C(=O)O)cc1 [Example 60, 4-(3-{5-fluoro-2-[3-(4-fluoro-3-trifluoromethylphenyl)-5,5-dimethyl-2,4-dioxoimidazolidin-1-ylmethyl]phenyl}-ureido)benzoic acid]

pIC50: 7.49
Compound: CC1(C)C(=O)N(c2ccc(F)c(C(F)(F)F)c2)C(=O)N1Cc1ccc(F)cc1NC(=O)Nc1ccc(NS(C)(=O)=O)cc1 [Example 31, N-[4-(3-{5-Fluoro-2-[3-(4-fluoro-3-trifluoromethylphenyl)-5,5-dimethyl-2,4-dioxoimidazolidin-1-ylmethyl]phenyl}ureido)phenyl]methanesulfonamide]

pIC50: 7.38
Compound: CC1(C)C(=O)N(c2ccc(F)c(C(F)(F)F)c2)C(=O)N1Cc1ccc(F)cc1NC(=O)Nc1ccc(C(=O)NS(=O)(=O)C2CC2)cc1 [Example 65, N-[4-(3-{5-fluoro-2-[3-(4-fluoro-3-trifluoromethylphenyl)-5,5-dimethyl-2,4-dioxoimidazolidin-1-ylmethyl]phenyl}ureido)benzoyl]cyclopropanesulfonamide]

pIC50: 7.89
Compound: CC1(C)C(=O)N(c2ccc(F)c(C(F)(F)F)c2)C(=O)N1Cc1ccc(F)cc1NC(=O)Nc1ccc(S(C)(=O)=O)cc1 [Example 27, 1-{5-Fluoro-2-[3-(4-fluoro-3-trifluoromethylphenyl)-5,5-dimethyl-2,4-dioxoimidazolidin-1-ylmethyl]phenyl}-3-(4-methanesulfonylphenyl)urea]

pIC50: 7.80
Compound: CC1(C)C(=O)N(c2ccc(F)c(C(F)(F)F)c2)C(=O)N1Cc1ccc(F)cc1NC(=O)Nc1ccc(C(=O)NS(C)(=O)=O)cc1 [Example 61, N-[4-(3-{5-Fluoro-2-[3-(4-fluoro-3-trifluoromethylphenyl)-5,5-dimethyl-2,4-dioxoimidazolidin-1-ylmethyl]phenyl}ureido)benzoyl]methanesulfonamide]

pIC50: 7.24
Compound: CC1(C)C(=O)N(c2ccc(F)c(C(F)(F)F)c2)C(=O)N1Cc1ccc(F)cc1NC(=O)Nc1ccc(S(=O)(=O)O)cc1 [Example 25, 4-(3-{5-fluoro-2-[3-(4-fluoro-3-trifluoromethylphenyl)-5,5-dimethyl-2,4-dioxoimidazolidin-1-ylmethyl]phenyl}ureido)benzenesulfonic acid]
